# Patent publication USRE38424E1 (The United States of America as represented by the …, priority 1994, dated 2004)
# How the values were obtained:
# [1] = in vivo; cited from earlier work
# [2] = tested on: recurrent advanced stage epithelial ovarian cancer; test: Phase II dose intense taxol with G-CSF support: disease response and survival; format: in vivo, human
# From the text: (§1) A total of 47 patients were included in this study. All patients had recurrent advanced stage epithelial ovarian cancer confirmed on histologic review at the Laboratory of Pathology, National Cancer Institute (NCI). Borderline, mixed, and germ cell histologies were excluded.
# A complete response (CR) was defined as patients having a complete resolution of disease as determined by both physical and radiographic examination as well as normalization of CA-125 lasting at least 4 weeks. A partial response (PR) patient was defined as having a greater than 50% reduction in the sum of the products of bidimensional measurements of all sites of disease as determined by both physical and radiographic analysis which lasted at least 4 weeks, and wherein no development of new lesions was observed. A minor response (MR) patient was defined as having greater than 25% but less than 50% reduction in the sum of the products of the perpendicular diameters of all measurable lesions and wherein no new sites of disease were observed. A stable disease (SD) was defined as patients having less than a 25% increase or less than a 25% reduction in sum of the product of the perpendicular diameters of all measurable lesions in response to therapy, without development of new lesions, for at least 4 weeks. Progressive disease (PD) was defined as patients having an increase of at least 25% in the sum of the products of the perpendicular diameters of all measurable lesions and/or the development of new lesions.
# CA-125 levels were followed in all patients but were not used to define a patient's response except in one situation.
# [3] = From the text: as §1
# Pretreatment evaluation consisted of a physical examination, laboratory studies with CA-125, radiographic evaluation by CT scan, baseline electromyogram with nerve conduction velocity studies (EMG/NCV), creatinine clearance, chest radiograph, and EKG. On-study staging was completed within two weeks of starting therapy. Physical examination and laboratory evaluations were repeated with every cycle, except for CBC which was evaluated twice weekly. Patients underwent restaging every two cycles (i.e., every 6 weeks), which included the repetition of any radiographic studies that were abnormal upon entry. EMG/NCV studies were repeated as indicated to determine the presence of any progressive neurologic toxicity.
# The G-CSF was supplied to the Division of Cancer Treatment by Amgen, Inc. (Thousand Oaks, Calif.). This G-CSF administration continued until the absolute granulocyte count of the patient was greater than 1500/μl for two consecutive days after the nadir (i.e., the total count for the two days was at least 3000/μl ) or until the total white blood cell count was greater than 30,000/μl. Patients with responding disease or stable disease continued on the study and were reevaluated at two cycle intervals.
# Patients manifesting second or third degree heart block had remaining cycles given in the intensive care unit with appropriate interventions. Antiemetics were given as needed.
# More specifically, this was undertaken by increasing the dose of G-CSF administered on the next treatment cycle.
# The particulars pertaining to the flexible G-CSF dosage regimen are as follows. […] The dose of G-CSF was reduced by 5 μg/kg/day if severe bone pain occurred at these higher G-CSF dosage levels, i.e., at levels greater than or equal to 10 μg/kg/day.
# [4] = Nerve conduction studies in two patients with grade 3 polyneuropathy; details: for MAP Amplitude Percent Decrement / MAP Amplitude Lowest on Taxol: Motor; for SAP Amplitude Percent Decrement / SAP Amplitude Lowest on Taxol: Sensory
# Protocol: In two of these patients who developed clinical evidence of neuropathy, the studies were repeated on three occasions in case 1 and once in case 2. In all 12 patients, maximal motor and sensory conduction velocities and response amplitudes were recorded for the median or ulnar nerve in the upper limb and for the peroneal and sural nerves in the lower limb.
# [5] = dose intense taxol with G-CSF, 44 assessable patients
# [6] = dose intense taxol with G-CSF, 44 assessable patients, listed as taxol
# [7] = nineteen patients treated until CR or progression
# [8] = female, human, in vivo, 1 cycle
# [9] = female, human, in vivo, 21 days (per cycle)
smiles,measurement,setting,value
"CC(=O)O[C@H]1C(=O)[C@@]2(C)[C@H]([C@H](OC(=O)c3ccccc3)[C@]3(O)C[C@H](OC(=O)[C@H](O)[C@@H](NC(=O)c4ccccc4)c4ccccc4)C(C)=C1C3(C)C)[C@]1(OC(C)=O)CO[C@@H]1C[C@@H]2O [Taxol, taxol]",Taxol dosage level above which severe neurotoxicity (peripheral neuropathy) is experienced,[1],above 300 mg/m^2/ 21 days
same,Overall objective response rate,"[2]; 21/44, 95% CI: 33-63%, taxol 250 mg/m^2/21 days with G-CSF",48%
same,Survival at one year,"[2]; 95% confidence interval, 25-67%",45.3%
same,Median survival time,"[2]; Kaplan-Meier, phase II",11.5 months
same,"CR, % of Cohort",[2]; [5],14%
same,"CR, No. of Patients",[2]; [5],6
same,"MR, % of Cohort",[2]; [5],11%
same,"MR, No. of Patients",[2]; [5],5
same,"NR, % of Cohort",[2]; [5],25%
same,"NR, No. of Patients",[2]; [5],11
same,"PR, % of Cohort",[2]; [5],34%
same,"PR, No. of Patients",[2]; [5],15
same,"CR, No. of Patients",[2]; [6],Six
same,"MR, No. of Patients",[2]; [6],five
same,"PR, No. of Patients",[2]; [6],Fifteen
same,Median number of cycles required to reach an objective response,[2]; [7],four
same,"Number of cycles required to reach an objective response, range",[2]; [7],two to eight
same,Objective response rate,[2]; taxol about 250 mg/m^2/ 21 days,about 50%
same,Increase in the response rate versus standard dose,[2]; taxol about 250 mg/m^2/ 21 days vs standard dose,67%
same,"Alopecia, Grade 1 & 2","[3]; female, human, in vivo",38 No. (%)
same,"Bone Pain, Grade 3 & 4","[3]; female, human, in vivo",3 (6) No. (%)
same,"Cardiac toxicity, Grade 1 & 2","[3]; female, human, in vivo",35 (74) No. (%)
same,"Constitutional toxicity, Grade 1 & 2","[3]; female, human, in vivo",43 No. (%)
same,"Constitutional toxicity, Grade 3 & 4","[3]; female, human, in vivo",4 (9) No. (%)
same,"Diarrhea, Grade 1 & 2","[3]; female, human, in vivo",29 No. (%)
same,"Diarrhea, Grade 3 & 4","[3]; female, human, in vivo",2 (4) No. (%)
same,"Hematologic toxicity, Anemia, Grade 1 & 2","[3]; female, human, in vivo",17 (47) No. (%)
same,"Hematologic toxicity, Anemia, Grade 3 & 4","[3]; female, human, in vivo",30 (47) No. (%)
same,"Hematologic toxicity, Granulocytes, Grade 1 & 2","[3]; female, human, in vivo",1 (2) No. (%)
same,"Hematologic toxicity, Granulocytes, Grade 3 & 4","[3]; female, human, in vivo",46 (98) No. (%)
same,"Hematologic toxicity, Platelets, Grade 1 & 2","[3]; female, human, in vivo",24 (51) No. (%)
same,"Hematologic toxicity, Platelets, Grade 3 & 4","[3]; female, human, in vivo",19 (40) No. (%)
same,"Hypersensitivity Reactions, Grade 1 & 2","[3]; female, human, in vivo",31 (66) No. (%)
same,"Hypersensitivity Reactions, Grade 3 & 4","[3]; female, human, in vivo",2 (4) No. (%)
same,Median time of neutrophil nadir,"[3]; female, human, in vivo",7 days
same,"Mucositis, Grade 1 & 2","[3]; female, human, in vivo",31 (66) No. (%)
same,"Mucositis, Grade 3 & 4","[3]; female, human, in vivo",3 (6) No. (%)
same,"Myalgias, Grade 1 & 2","[3]; female, human, in vivo",43 No. (%)
same,"Neurologic toxicity, Grade 1 & 2","[3]; female, human, in vivo",36 (77) No. (%)
same,"Neurologic toxicity, Grade 3 & 4","[3]; female, human, in vivo",3 (6) No. (%)
same,Patients who continued at the starting dosage combination throughout therapy,"[3]; female, human, in vivo",45%
same,Patients who continued on that dose combination,"[3]; female, human, in vivo",12 patients
same,Patients who required red blood cell transfusions,"[3]; female, human, in vivo",55%
same,Patients with Mobitz I block,"[3]; female, human, in vivo",4%
same,Patients with Mobitz II block,"[3]; female, human, in vivo",4%
same,Patients with dose reduction for taxol-induced peripheral neuropathy,"[3]; female, human, in vivo",3 patients
same,Patients with first degree atrioventricular block,"[3]; female, human, in vivo",4%
same,Patients with grade 3 and 4 hematologic toxicities,"[3]; female, human, in vivo",98%
same,Patients with mild ototoxicity,"[3]; female, human, in vivo",11%
same,Patients with myalgias and arthralgias (grades 1 and 2),"[3]; female, human, in vivo",less than 50%
same,"Time of neutrophil nadir, range","[3]; female, human, in vivo",5 to 11 days
same,"Vomiting, Grade 1 & 2","[3]; female, human, in vivo",23 No. (%)
same,Median nadir heart rate,[3]; [8],52 bpm
same,"Nadir heart rate, range",[3]; [8],38-59 bpm
same,Patients with asymptomatic sinus bradycardia,[3]; [8],34%
same,Cycles associated with neutropenia,[3]; [9],24%
same,Cycles complicated by fever and neutropenia,[3]; [9],10%
same,Episodes of complete heart block,[3]; in vivo,No episodes
same,Patients with hypersensitivity reactions,[3]; in vivo,Two
same,Patients with rapid atrial fibrillation requiring digitalization,[3]; in vivo,one
same,Patients with supraventricular tachycardia,[3]; in vivo,two
same,Treatment related death due to polymicrobial sepsis,[3]; one of 47 patients,2%
same,MAP Amplitude Percent Decrement,"[4]; Median nerve, case 2",None
same,MAP Amplitude Lowest on Taxol,"[4]; Median nerve, case 2, control 10.5 mV",10.8 mV
same,MAP Amplitude Percent Decrement,"[4]; Peroneal nerve, case 1",49%
same,MAP Amplitude Lowest on Taxol,"[4]; Peroneal nerve, case 1, control 3.9 mV",1.9 mV
same,MAP Amplitude Percent Decrement,"[4]; Peroneal nerve, case 2",None
same,MAP Amplitude Lowest on Taxol,"[4]; Peroneal nerve, case 2, control 2.7 mV",2.7 mV
same,MAP Amplitude Percent Decrement,"[4]; Ulnar nerve, case 1",None
same,MAP Amplitude Lowest on Taxol,"[4]; Ulnar nerve, case 1, control 6.9 mV",7.1 mV
same,SAP Amplitude Percent Decrement,"[4]; Median nerve, case 2",13%
same,SAP Amplitude Lowest on Taxol,"[4]; Median nerve, case 2, control 69 μV",60 μV
same,SAP Amplitude Percent Decrement,"[4]; Sural nerve, case 1",75%
same,SAP Amplitude Lowest on Taxol,"[4]; Sural nerve, case 1, control 8 μV",2 μV
same,SAP Amplitude Percent Decrement,"[4]; Sural nerve, case 2",44%
same,SAP Amplitude Lowest on Taxol,"[4]; Sural nerve, case 2, control 32 μV",18 μV
same,SAP Amplitude Percent Decrement,"[4]; Ulnar nerve, case 1",62%
same,SAP Amplitude Lowest on Taxol,"[4]; Ulnar nerve, case 1, control 19 μV",6 μV
